Test results reported in US4808620A, “Pyrazolopyridine compounds, their preparation and use as platelet aggregation inhibitors” (Yoshitomi Pharmaceutical Industries, Ltd., priority 1986, dated 1989).
Values after ≈ are worked out from the molar mass of the structure shown.

Legend:
[1] = tested on: stretch symptom induced by phenylquinone; assay: Analgesic Activity (phenylquinone-induced stretch symptom, method of Hendershot et al); format: in vivo, Male ddY mice; conditions: Mus musculus, po; mice, p.o., 1 h before 0.02% phenylquinone i.p., stretch frequency for 20 min; read-out: ED50, Pharmacological Experiment (1), analgesic activity
Description: The experiment was performed according to the method of Hendershot et al described in J. Pharmacol. Exp. Ther., vol. 125, P. 237 (1959). Male ddY mice weighing 18-25 g were used in groups of 6-18. One hour after the oral administration of test compound solution (10 ml/kg), 10 ml/kg of 0.02% aqueous phenylquinone solution was intraperitoneally administered to the animal. The frequency of stretch symptom thus induced measured for 20 minutes. The inhibitory rate was determined in comparison with the control group and the 50% effective dose (ED50, mg/kg) was caluculated according to the linear regression method.

[2] = tested on: Acute Inflammation (carrageenin); assay: Effect on Acute Inflammation (carrageenin hind paw, method of Winter et al); format: in vivo, Male Donryu rats; conditions: Rattus norvegicus, po; rats, p.o., 1 h before 1% carrageenin, foot volume 3 h later; read-out: ED50, Pharmacological Experiment (2), acute inflammation
Description: Effect on Acute Inflammation
The experiment was performed according to the method of Winter et al described in Proc. Soc. Exp. Biol. Med., vol. 111, p. 544 (1962). Male Donryu rats weighing about 140 g which was fastened for 18 hours were used in groups of five animals. Test compound solution was orally administered and one hour later, 0.05 ml of saline solution containing 1% carrageenin was injected into the right hind paw. Three hours later, the foot volume was measured by the water displacement method. The rate of increase against the foot volume before the injection of carrageenin was calculated, and the inhibitory rate was determined as compared with the control group. The 50% effective dose (ED50, mg/kg) was determined by the linear regression method.

[3] = tested on: Chronic Inflammation (adjuvant arthritis); assay: Effect on Chronic Inflammation (adjuvant arthritis, method of Newbould); format: in vivo, male Lewis rats; conditions: Rattus norvegicus, po; adjuvant arthritis rats, p.o. once a day from 15th to 24th day, decrease of foot volume vs 15th day; read-out: MED, Pharmacological Experiment (3), chronic inflammation
Description: Effect on Chronic Inflammation The experiment was performed by employing 10-week old male Lewis rats according to the method of Newbould described in Brit. J. Pharmacol., vol. 21, p. 127 (1963). Dead tubercle bacilli ([…] H5 type) suspended in liquid paraffin (0.5 mg/0.1 ml) was inoculated as adjuvant into the skin at the base of tail. Animals with arthritis were chosen on the 15th day and divided into groups of seven. Test compound solution (5 ml/kg) was orally administered once a day from 15th day of 24th day consecutively. The rate of change of the foot volume on the 24th day against the foot volume on the 15th day was calculated, and the inhibitory rate was determined as compared with the control group. The minimun effective dose (MED, mg/kg) was obtained based on the dose indicating the decrease of foot volume than the foot volume on the 15th day.

[4] = tested on: Platelet Aggregation induced by Arachidonic Acid; assay: Effect on the Platelet Aggregation induced by Arachidonic Acid; format: cell-based, Male Hartley guinea pigs; conditions: Cavia porcellus, guinea pig PRP, 37° C., arachidonic acid 5×10^-4 M, maximum aggregation value, read-out: IC50, Pharmacological Experiment (4), platelet aggregation
Description: Effect on the Platelet Aggregation induced by Arachidonic Acid
Male Hartley guinea pigs weighing 400-500 g were subjected to the abdominal operation under etherization. The citrated blood (9 volumes of blood and one volume of 3.8% sodium citrate solution) was collected from the abdominal aorta. Immediately, the blood was centrifuged at 150×g for 3 minutes to obtained platelet-rich plasma (PRP) as a supernatant. The remaining blood was centrifuged at 1400×g for 10 minutes to obtain platelet-poor plasma (PPP) as a supernatant. The number of platelet in PRP was adjusted to 4-6×10^5 platelets/mm^3 by adding PPP thereto The platelet aggregation was measured by using a platelet aggregometer according to the method of Born et al described in J. Physiol., vol. 168, p. 178 (1963). Test compound solution was added to PRP under stirring at 1500 rpm at 37° C., and two minutes later arachidonic acid (final concentration: 5×10^-4 M) is added thereto. The change of transmittance was recorded consecutively. The transmittance was adjusted to 0 and 100% with PRP and PPP, respectively. The inhibitory rate was calculated against the control group by using the maximum aggregation value as an index, and 50% inhibitory concentration(IC50, μg/ml) was determined by the linear regression method.

Compound | ED50 [1] [mg/kg] | ED50 [2] [mg/kg] | minimal effective dose [3] [mg/kg] | IC50 [4] [µg/mL]
Cn1nc(-c2cc(C(C)(C)C)c(O)c(C(C)(C)C)c2)c2cccnc21 [Compound A, 3-(3,5-di-tertiarybutyl-4-hydroxyphenyl)-1-methyl-1H-pyrazolo[3,4-b]pyridine] | 9.5 | 70 | 0.3 | 1.05 (≈ 3.11 µM)
CC(C)(C)c1cc(-c2nn(CCO)c3ncccc23)cc(C(C)(C)C)c1O [Compound B, 3-(3,5-di-tertiarybutyl-4-hydroxyphenyl)-1-(2-hydroxyethyl)-1H-pyrazolo [3,4-b]pyridine] | 19 | 44 | 3 | 0.09 (≈ 0.245 µM)
CCC(=O)OCCn1nc(-c2cc(C(C)(C)C)c(O)c(C(C)(C)C)c2)c2cccnc21 [Compound C, 3-(3,5-di-tertiarybutyl-4-hydroxyphenyl)-1-(2"propionyloxyethyl)-1H-pyrazolo [3,4-]pyridine] | 1.1 | 8 | 0.3 | 0.95 (≈ 2.24 µM)
CCOC(=O)CCn1nc(-c2cc(C(C)(C)C)c(O)c(C(C)(C)C)c2)c2cccnc21 [Compound D, 3-(3,5-di-tertiarybutyl-4-hydroxyphenyl)-1-(2-ethoxycarbonylethyl)-1H-pyrazolo [3,4-b]pyridine] | 0.56 | 8.3 | 1 | 0.12 (≈ 0.283 µM)
CC(=O)OCCn1nc(-c2cc(C(C)(C)C)c(O)c(C(C)(C)C)c2)c2cccnc21 [Compound E, 1-(acetoxyethyl)-3-(3,5-di-tertiarybutyl-4-hydroxyphenyl)-1H-pyrazolo[3,4-b]pyridine] | 0.35 | 14 | 0.3 | 0.9 (≈ 2.2 µM)
